Laboratory results as given in patent US20240051937A1, “ISOINDOLINONE AMIDE COMPOUNDS USEFUL TO TREAT DISEASES ASSOCIATED WITH GSPT1” (Monte Rosa Therapeutics, Inc., priority 2021, published 2024).
Where two headings read alike, the source gives them in different places.

Key:
IKZF1 = target: T1, IKZF1 (Homo sapiens, UniProt Q13422+Q96SW2); experiment: Selectivity determination by Western blot assay in MM1S cells: IKZF1; format: cell-based; set-up: key: A represents no degradation observed at 30 μM; B represents trace degradation at 30 μM (below 20%); C represents weak degradation at 30 μM (below 50%); D represents degradation at 30 μM (>90%); E represents degradation at 3 μM (>90%); F represents degradation at 0.3 μM (>90%); conditions: MM1S cells, 0.3, 3 and 30 μM, 6 hours
T1 construct: MM1S cells were purchased from ATCC (cat. Number CRL-2974); host or cells: MM1S cells
T1 sequence (Q13422 whole entry): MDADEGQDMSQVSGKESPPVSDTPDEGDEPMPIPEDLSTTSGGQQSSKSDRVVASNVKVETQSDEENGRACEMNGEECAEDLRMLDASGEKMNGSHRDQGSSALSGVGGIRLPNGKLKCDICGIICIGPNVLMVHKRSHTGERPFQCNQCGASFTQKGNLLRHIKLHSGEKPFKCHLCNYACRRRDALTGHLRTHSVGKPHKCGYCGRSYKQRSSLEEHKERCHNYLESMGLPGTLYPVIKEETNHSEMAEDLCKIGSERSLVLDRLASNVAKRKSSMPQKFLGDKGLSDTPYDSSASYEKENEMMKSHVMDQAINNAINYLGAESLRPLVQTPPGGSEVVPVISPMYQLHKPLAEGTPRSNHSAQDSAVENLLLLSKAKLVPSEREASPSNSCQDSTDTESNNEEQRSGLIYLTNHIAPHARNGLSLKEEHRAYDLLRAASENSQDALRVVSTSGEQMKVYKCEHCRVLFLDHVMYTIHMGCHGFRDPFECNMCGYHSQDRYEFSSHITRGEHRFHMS
T1 sequence (Q96SW2 whole entry): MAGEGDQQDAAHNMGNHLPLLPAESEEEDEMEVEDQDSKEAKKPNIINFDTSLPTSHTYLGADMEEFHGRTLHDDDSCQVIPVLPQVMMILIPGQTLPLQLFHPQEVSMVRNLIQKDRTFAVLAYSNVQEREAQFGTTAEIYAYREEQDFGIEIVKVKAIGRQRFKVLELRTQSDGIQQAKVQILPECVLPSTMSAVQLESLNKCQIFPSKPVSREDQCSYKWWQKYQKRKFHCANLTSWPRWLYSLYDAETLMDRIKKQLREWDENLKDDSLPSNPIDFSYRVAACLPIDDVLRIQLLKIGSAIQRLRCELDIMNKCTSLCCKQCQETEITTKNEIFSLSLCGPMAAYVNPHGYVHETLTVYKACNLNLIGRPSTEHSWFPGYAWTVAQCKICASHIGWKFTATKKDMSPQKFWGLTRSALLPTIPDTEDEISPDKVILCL
T1 sequence (Q16531 whole entry partner): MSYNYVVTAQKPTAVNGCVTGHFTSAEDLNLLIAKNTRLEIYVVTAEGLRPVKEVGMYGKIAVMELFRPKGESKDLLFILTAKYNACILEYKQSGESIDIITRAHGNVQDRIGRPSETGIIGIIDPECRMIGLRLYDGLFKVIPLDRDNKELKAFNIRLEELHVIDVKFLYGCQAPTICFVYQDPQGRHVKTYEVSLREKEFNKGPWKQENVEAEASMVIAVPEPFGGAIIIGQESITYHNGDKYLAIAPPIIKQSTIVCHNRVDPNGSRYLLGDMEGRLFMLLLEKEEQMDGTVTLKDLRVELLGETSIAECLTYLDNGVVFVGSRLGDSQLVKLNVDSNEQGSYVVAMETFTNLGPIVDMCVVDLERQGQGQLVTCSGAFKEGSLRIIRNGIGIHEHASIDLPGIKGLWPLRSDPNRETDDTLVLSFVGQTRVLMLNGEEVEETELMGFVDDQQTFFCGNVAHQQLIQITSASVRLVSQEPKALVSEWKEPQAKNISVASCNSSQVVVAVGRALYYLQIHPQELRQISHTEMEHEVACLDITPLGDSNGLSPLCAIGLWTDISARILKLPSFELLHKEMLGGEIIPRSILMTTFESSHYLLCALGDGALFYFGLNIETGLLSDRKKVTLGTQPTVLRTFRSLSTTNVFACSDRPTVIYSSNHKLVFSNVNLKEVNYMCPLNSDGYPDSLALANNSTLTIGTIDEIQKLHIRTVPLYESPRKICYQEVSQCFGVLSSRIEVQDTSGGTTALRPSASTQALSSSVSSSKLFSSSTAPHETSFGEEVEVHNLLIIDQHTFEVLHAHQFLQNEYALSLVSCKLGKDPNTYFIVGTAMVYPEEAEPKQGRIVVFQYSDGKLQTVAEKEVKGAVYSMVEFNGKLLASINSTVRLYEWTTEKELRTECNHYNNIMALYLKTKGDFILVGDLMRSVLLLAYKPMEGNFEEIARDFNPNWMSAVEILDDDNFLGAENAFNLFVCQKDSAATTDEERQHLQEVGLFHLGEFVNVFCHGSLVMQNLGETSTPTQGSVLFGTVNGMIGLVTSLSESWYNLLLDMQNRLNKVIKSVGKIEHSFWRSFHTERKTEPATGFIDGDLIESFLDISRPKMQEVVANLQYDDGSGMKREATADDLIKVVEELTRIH
Protocol: (§1) MM1S cells were purchased from ATCC (cat. Number CRL-2974), sub-cultured in […] RPMI 1640 with 10% FBS, supplemented with Ix P/S and incubated at 37° C., […]. Compounds were stored as 10 mM DMSO stock. For the assay, MM1S cells (3 million cells/well) were plated in 6-well plates and incubated over night. Cells were treated with respective compounds using a serial dilution: 0.3 μM, 3 μM and 30 μM as well as a vehicle only (DMSO) control for 6 hours. Media with suspension cells was subsequently transferred to 15 mL conical tubes, wells rinsed twice with ice-cold PBS and merged with cell suspension in respective 15 mL conical tube. Cells were spinned down, supernatant aspirated, pellets resuspended in ice-cold PBS and transferred to microtubes. Cells were spinned down, supernatant aspirated and pellets resuspended in 120 μL RIPA lysis buffer supplemented with protease and phosphatase inhibitors. Cell lysates were incubated on ice for 20 minutes followed by centrifugation at >20,000×g for 5 min. Supernatants were transferred to fresh microtubes and stored at −80° C. Total protein concentration was determined using a BCA assay with a BSA standard curve and concentration of all samples was adjusted to 1 mg/mL. […] Chemiluminescence signals were then detected using a LAS-4000 system with default settings and signals quantified using Image Studio Lite software (version 5.2). […]

ZFP91 = target: T2, ZFP91 (Homo sapiens, UniProt Q96JP5+Q96SW2); experiment: Selectivity determination by Western blot assay in MM1S cells: ZFP91; format: cell-based; conditions: MM1S cells, 0.3, 3 and 30 μM, 6 hours
T2 construct: MM1S cells were purchased from ATCC (cat. Number CRL-2974); host or cells: MM1S cells
T2 sequence (Q96JP5 2-570 limits assumed): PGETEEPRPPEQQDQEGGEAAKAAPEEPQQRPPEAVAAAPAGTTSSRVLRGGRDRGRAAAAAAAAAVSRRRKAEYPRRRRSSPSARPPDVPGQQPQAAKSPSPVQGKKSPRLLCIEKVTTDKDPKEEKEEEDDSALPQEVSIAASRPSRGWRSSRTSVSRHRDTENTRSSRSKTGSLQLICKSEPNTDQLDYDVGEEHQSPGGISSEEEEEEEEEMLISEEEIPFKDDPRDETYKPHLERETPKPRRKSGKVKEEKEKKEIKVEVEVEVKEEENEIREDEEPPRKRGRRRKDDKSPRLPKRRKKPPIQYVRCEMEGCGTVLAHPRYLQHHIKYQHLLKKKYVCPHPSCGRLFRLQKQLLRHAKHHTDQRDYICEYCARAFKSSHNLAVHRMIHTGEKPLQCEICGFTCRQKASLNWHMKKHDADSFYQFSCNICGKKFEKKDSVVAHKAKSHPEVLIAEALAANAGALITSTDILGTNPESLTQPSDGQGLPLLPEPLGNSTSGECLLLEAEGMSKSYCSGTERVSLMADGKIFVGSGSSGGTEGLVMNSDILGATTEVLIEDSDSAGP
T2 sequence (Q96SW2 whole entry): as the sequence (Q96SW2 whole entry) above
T2 sequence (Q16531 whole entry partner): as the sequence (Q16531 whole entry partner) above
Protocol: as §1

GSPT1 = GSPT1 (Homo sapiens, UniProt P15170+Q96SW2); experiment: Selectivity determination by Western blot assay in MM1S cells: GSPT1; format: cell-based; set-up: MM1S cells were purchased from ATCC (cat. Number CRL-2974); host or cells: MM1S cells; conditions: MM1S cells, 0.3, 3 and 30 μM, 6 hours
Chain of GSPT1 (P15170 whole entry): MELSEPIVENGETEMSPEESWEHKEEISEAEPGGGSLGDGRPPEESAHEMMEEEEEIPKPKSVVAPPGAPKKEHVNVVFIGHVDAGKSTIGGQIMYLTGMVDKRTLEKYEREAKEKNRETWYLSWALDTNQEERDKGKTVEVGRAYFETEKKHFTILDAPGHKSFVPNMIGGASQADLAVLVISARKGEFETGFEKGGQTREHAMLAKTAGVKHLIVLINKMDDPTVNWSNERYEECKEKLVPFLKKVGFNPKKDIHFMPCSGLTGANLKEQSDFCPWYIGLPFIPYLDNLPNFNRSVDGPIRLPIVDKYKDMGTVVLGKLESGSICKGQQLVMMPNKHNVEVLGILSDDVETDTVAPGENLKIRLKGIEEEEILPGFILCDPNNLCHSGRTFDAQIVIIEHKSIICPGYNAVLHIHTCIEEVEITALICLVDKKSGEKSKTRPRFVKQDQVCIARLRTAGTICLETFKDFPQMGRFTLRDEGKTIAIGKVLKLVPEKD
Chain of GSPT1 (Q96SW2 whole entry): as the sequence (Q96SW2 whole entry) above
Chain of GSPT1 (Q16531 whole entry partner): as the sequence (Q16531 whole entry partner) above
Protocol: as §1

IKZF3 = target: T3, IKZF3 (Homo sapiens, UniProt Q96SW2+Q9UKT9); experiment: Selectivity determination by Western blot assay in MM1S cells: IKZF3; format: cell-based; set-up: key: A represents no degradation observed at 30 μM; B represents trace degradation at 30 μM (below 20%); C represents weak degradation at 30 μM (below 50%); D represents degradation at 30 μM (>90%); E represents degradation at 3 μM (>90%); F represents degradation at 0.3 μM (>90%); conditions: MM1S cells, 0.3, 3 and 30 μM, 6 hours
T3 construct: MM1S cells were purchased from ATCC (cat. Number CRL-2974); host or cells: MM1S cells
T3 sequence (Q9UKT9 whole entry): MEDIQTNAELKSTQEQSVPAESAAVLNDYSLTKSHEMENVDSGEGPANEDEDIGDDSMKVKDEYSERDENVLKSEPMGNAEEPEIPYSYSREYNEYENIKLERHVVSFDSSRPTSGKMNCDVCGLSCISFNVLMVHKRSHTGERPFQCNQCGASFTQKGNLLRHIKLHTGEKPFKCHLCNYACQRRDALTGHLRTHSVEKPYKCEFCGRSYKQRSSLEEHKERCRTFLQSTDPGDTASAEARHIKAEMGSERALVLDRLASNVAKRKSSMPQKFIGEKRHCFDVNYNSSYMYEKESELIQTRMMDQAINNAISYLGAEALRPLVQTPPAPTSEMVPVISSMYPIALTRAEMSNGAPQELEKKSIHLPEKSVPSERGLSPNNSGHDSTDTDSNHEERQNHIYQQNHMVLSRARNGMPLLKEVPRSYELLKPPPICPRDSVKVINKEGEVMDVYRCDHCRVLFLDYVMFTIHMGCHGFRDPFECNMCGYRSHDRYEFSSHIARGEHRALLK
T3 sequence (Q96SW2 whole entry): as the sequence (Q96SW2 whole entry) above
T3 sequence (Q16531 whole entry partner): as the sequence (Q16531 whole entry partner) above
Protocol: as §1

CK1alpha = target: T4, CK1alpha (Homo sapiens, UniProt P48729+Q96SW2); experiment: Selectivity determination by Western blot assay in MM1S cells: CK1alpha; format: cell-based; conditions: MM1S cells, 0.3, 3 and 30 μM, 6 hours
T4 construct: MM1S cells were purchased from ATCC (cat. Number CRL-2974); host or cells: MM1S cells
T4 sequence (P48729 whole entry): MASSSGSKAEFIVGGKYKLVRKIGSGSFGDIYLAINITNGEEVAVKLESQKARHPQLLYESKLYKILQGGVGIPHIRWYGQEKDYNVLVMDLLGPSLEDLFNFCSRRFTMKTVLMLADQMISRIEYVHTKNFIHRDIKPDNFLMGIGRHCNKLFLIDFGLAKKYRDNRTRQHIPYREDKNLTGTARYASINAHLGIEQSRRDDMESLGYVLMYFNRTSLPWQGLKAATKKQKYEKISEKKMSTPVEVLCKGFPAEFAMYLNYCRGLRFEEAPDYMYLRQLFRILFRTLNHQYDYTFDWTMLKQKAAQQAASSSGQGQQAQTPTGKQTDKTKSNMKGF
T4 sequence (Q96SW2 whole entry): as the sequence (Q96SW2 whole entry) above
T4 sequence (Q16531 whole entry partner): as the sequence (Q16531 whole entry partner) above
Protocol: as §1

[1] = target: T5, Full length wild-type cereblon CRBN (Homo sapiens, UniProt Q96SW2); experiment: Fluorescence polarization (FP) assay indicating cereblon binding
T5 construct: Full length wild-type cereblon CRBN (80.0 nM, 10 μL) was incubated in assay buffer
T5 sequence (Q96SW2 whole entry): as the sequence (Q96SW2 whole entry) above
Text: Protocol for Fluorescent Polarization Assay
Compound activity was monitored in a fluorescence polarization (FP) homogeneous assay using 1-[5-({2-[2-(2-{[2-(2,6-dioxopiperidin-3-yl)-1,3-dioxo-2,3-dihydro-1H-isoindol-4-yl]oxy}acetamido)ethoxy]ethyl}carbamoyl)pentyl]-3,3-dimethyl-2-[(1E,3E)-5-[(2E)-1,3,3-trimethyl-5-sulfo-2,3-dihydro-1H-indol-2-ylidene]penta-1,3-dien-1-yl]-3H-indol-1-ium-5-sulfonate as a fluorescent probe. Unless otherwise stated, all reagents were purchased from Sigma Aldrich. Enzymatic reactions were conducted in Perkin-Elmer Black 384 well ProxiPlate Plus (catalogue no. 6008269) in 10 μL total volume. Full length wild-type cereblon CRBN (80.0 nM, 10 μL) was incubated in assay buffer containing 20 mM HEPES (pH 8.0), […], 0.5 mM TCEP and 0.05% Tween 20 in the presence or absence of compound (300 nL). Inhibitors were stored as 10 mM DMSO stocks in an inert environment (low humidity, dark, low oxygen, room temperature) using the Storage Pod System. Compounds and DMSO were dispensed using the Echo E5XX (Labcyte Inc. USA) to give concentrations from 300 to 0.937 or 3000 to 9.3 nM in a 12 data point curve. […] Following incubation at room temperature for 30 min, the assay was initiated by dispensing the probe to a final concentration of 5 nM (2.5 nL of a 20 μM stock) using the Echo E5XX. FP was measured after a period of 12 hours using a Pherastar plate reader (BMG Labtech, Germany) exciting at 590 nm and measuring the amount of parallel and perpendicular light at 675 nm. The FP signal was subsequently normalized to the no-compound control (i.e., DMSO). Analysis and IC50 values were derived using Dotmatics (Dotmatics UK) software.

[2] = cereblon binding, CRBN 80.0 nM, probe 5 nM, FP read after 12 hours, read-out: rFP IC50
[3] = fluorescence polarization assay, read-out: IC50 value (cereblon binding)

| IKZF1 degradation code (IKZF1) | IC50 [1, 2] | IC50 [1, 3] | Structure (SMILES) | ZFP91 degradation code (ZFP91) | GSPT1 degradation code (GSPT1) | IKZF3 degradation code (IKZF3) | CK1alpha degradation code (CK1alpha) |
| --- | --- | --- | --- | --- | --- | --- | --- |
| A | ≤ 0.5 µM | < 1.1 µM | Cc1ccc(NC(=O)CCc2ccc3c(c2)C(=O)N(C2CCC(=O)NC2=O)C3)cc1Cl (centres unmarked) [Compound 1] | B (B represents trace degradation at 30 μM (below 20%)) | F (F represents degradation at 0.3 μM (>90%)) | A | B (B represents trace degradation at 30 μM (below 20%)) |
| A | ≤ 0.5 µM | < 1.1 µM | Cc1c(Cl)cc(NC(=O)CCc2ccc3c(c2)C(=O)N(C2CCC(=O)NC2=O)C3)cc1CN1CCOCC1 (centres unmarked) [Compound 2] | C (C represents weak degradation at 30 μM (below 50%)) | F (F represents degradation at 0.3 μM (>90%)) | C (C represents weak degradation at 30 μM (below 50%)) | C (C represents weak degradation at 30 μM (below 50%)) |
